For 19 molecules, IC50 results are on record in patent US9227971B2, “Pyrazolo[1,5-a]pyrimidine compounds as mTOR inhibitors” (Merck Sharp & Dohme Corp., priority 2010, dated 2016).

pIC50: −log10 of the molar value. Read-outs that look alike come from different tables or passages of the source.

The test system of experiment [1] is phosphorylated AKT Ser473 (pAKT S473), mTORC2 activity, PC3 cells. Nature of the experiment: mTOR target engagement assay, immunofluorescent cell-based, pAKT S473 readout (mTORC2 activity). The procedure, abridged: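 After blocking, cells were stained overnight at 4 °C with anti-pAKT S473 antibody, then a fluorescent secondary; inhibition was read as reduced fluorescence intensity.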

The test system of experiment [2] is phosphorylated 4E-BP1 Thr37/46 (p4E-BP1 Thr37/46), mTORC1 activity, PC3 cells. The experiment can be described thus: mTOR target engagement assay, immunofluorescent cell-based, p4E-BP1 Thr37/46 readout (mTORC1 activity). The settings on record: read-out: p4E-BP1 Thr37/46 IC50. In a few lines: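 Cell-based immunofluorescence in PC3 cells: serially diluted compounds (0.25% DMSO, 5% FBS) applied for ninety minutes at 37° C before fixation and overnight 4° C staining of p4E-BP1 Thr37/46. Untreated DMSO wells set maximal phosphorylation; IC50 obtained by logistic fitting.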

[3] abbreviates: Homo sapiens, PC-3, PC3 cells, compound treatment ninety minutes at 37° C.
[4] abbreviates: Homo sapiens, PC-3, Table 3-1, PC3 cells.
Setting [5] is: Homo sapiens, PC-3, Table 6-1, PC3 cells.

With `CS(=O)(=O)c1c([C@@H]2C[C@H]3CC[C@@H](C2)N3C(=N)N)nc2c(-c3ccc(-c4ccccc4)nc3)cnn2c1N` [Compound 8.73, (1R,3s,5S)-3-(7-amino-6-(methylsulfonyl)-3-(6-phenylpyridin-3-yl)pyrazolo[1,5-a]pyrimidin-5-yl)-8-azabicyclo[3.2.1]octane-8-carboximidamide], the pIC50 in experiment [1] (Homo sapiens, PC-3, PC3 cells) was 5.00 to 6.00; in experiment [2] (Homo sapiens, PC-3, PC3 cells), 5.00 to 6.00.

In the case of `CC(=O)c1c([C@@H]2C[C@H]3CC[C@@H](C2)N3C(=O)CO)nc2c(-c3cnc(-c4cc[nH]n4)c(F)c3)cnn2c1N` [Compound 1.1.111, 1-((1R,3s,5S)-3-(6-acetyl-7-amino-3-(5-fluoro-6-(1H-pyrazol-3-yl)pyridin-3-yl)pyrazolo[1,5-a]pyrimidin-5-yl)-8-azabicyclo[3.2.1]octan-8-yl)-2-hydroxyethanone], the pIC50 in experiment [1] (setting [3]) and in experiment [2] (setting [3]) was 5.00 to 6.00 throughout.

As to `CS(=O)(=O)c1c([C@@H]2C[C@H]3CC[C@@H](C2)N3C(=O)c2nnc[nH]2)nc2c(-c3ccc(-c4ccc(OCF)cc4)nc3)cnn2c1N` [Compound 3.63, ((1R,3s,5S)-3-(7-amino-3-(6-(4-(fluoromethoxy)phenyl)pyridin-3-yl)-6-(methylsulfonyl)pyrazolo[1,5-a]pyrimidin-5-yl)-8-azabicyclo[3.2.1]octan-8-yl)(4H-1,2,4-triazol-3-yl)methanone], the pIC50 in experiment [1] (Table 3-1, PC3 cells) is 7.00 to 9.00; in experiment [2] (Table 3-1, PC3 cells) it was 7.00 to 9.00.

`CNC(=O)N1[C@@H]2CC[C@H]1C[C@H](c1nc3c(-c4ccc(-c5ccccc5)nc4)cnn3c(N)c1S(C)(=O)=O)C2` [Compound 3.30, (1R,3s,5S)-3-(7-amino-6-(methylsulfonyl)-3-(6-phenylpyridin-3-yl)pyrazolo[1,5-a]pyrimidin-5-yl)-N-methyl-8-azabicyclo[3.2.1]octane-8-carboxamide]: the pIC50 in experiment [1] (setting [4]) and in experiment [2] (setting [4]) was 6.00 to 7.00 throughout.

Take `CC(=O)Nc1nnc(C(=O)N2[C@@H]3CC[C@H]2C[C@H](c2nc4c(-c5ccc(-c6ccccc6)nc5)cnn4c(N)c2C2CC2)C3)[nH]1` [Compound 4.28, N-(5-((1R,3s,5S)-3-(7-amino-6-cyclopropyl-3-(6-phenylpyridin-3-yl)pyrazolo[1,5-a]pyrimidin-5-yl)-8-azabicyclo[3.2.1]octane-8-carbonyl)-4H-1,2,4-triazol-3-yl)acetamide]: the pIC50 in experiment [1] (setting [3]) and in experiment [2] (setting [3]) was 6.00 to 7.00 in each case.

Turning to `Nc1c(C2CC2)c([C@@H]2C[C@H]3CC[C@@H](C2)N3C(=O)c2nnc[nH]2)nc2c(-c3cnc4c(c3)OCc3cn[nH]c3-4)cnn12` [Compound 8.55], the pIC50 was 5.00 to 6.00 in experiment [1] (Homo sapiens, PC-3, PC3 cells) and 5.00 to 6.00 in experiment [2] (Homo sapiens, PC-3, PC3 cells).

On to `CC(C)(O)c1ncc(-c2cnn3c(N)c(S(C)(=O)=O)c([C@@H]4C[C@H]5CC[C@@H](C4)N5C(=O)c4nnc[nH]4)nc23)cc1Cl` [Compound 3.158, ((1R,3s,5S)-3-(7-amino-3-(5-chloro-6-(2-hydroxypropan-2-yl)pyridin-3-yl)-6-(methylsulfonyl)pyrazolo[1,5-a]pyrimidin-5-yl)-8-azabicyclo[3.2.1]octan-8-yl)(4H-1,2,4-triazol-3-yl)methanone], for which the pIC50 in experiment [1] (setting [4]) and in experiment [2] (setting [4]) was 7.00 to 9.00 throughout.

On to `CS(=O)(=O)c1c([C@@H]2C[C@H]3CC[C@@H](C2)N3C(=O)c2ccn[nH]2)nc2c(-c3ccc(-c4ccccc4)nc3)cnn2c1N` [Compound 3.74, ((1R,3s,5S)-3-(7-amino-6-(methylsulfonyl)-3-(6-phenylpyridin-3-yl)pyrazolo[1,5-a]pyrimidin-5-yl)-8-azabicyclo[3.2.1]octan-8-yl)(1H-pyrazol-5-yl)methanone], for which the pIC50 in experiment [1] (setting [4]) and in experiment [2] (setting [4]) was 7.00 to 9.00 throughout.

For the molecule `Cc1nc(-c2ccc(-c3cnn4c(N)c(S(C)(=O)=O)c([C@@H]5C[C@H]6CC[C@@H](C5)N6C(=O)c5cn[nH]n5)nc34)cn2)cs1` [Compound 3.201, ((1R,3s,5S)-3-(7-amino-6-(methylsulfonyl)-3-(6-(2-methylthiazol-4-yl)pyridin-3-yl)pyrazolo[1,5-a]pyrimidin-5-yl)-8-azabicyclo[3.2.1]octan-8-yl)(2H-1,2,3-triazol-4-yl)methanone], the pIC50 in experiment [1] (setting [4]) is 6.00 to 7.00; in experiment [2] (setting [4]), 5.00 to 6.00.

As for `CS(=O)(=O)c1c([C@@H]2C[C@H]3CC[C@@H](C2)N3C(=O)CO)nc2c(-c3ccc(-c4ncc[nH]4)cc3)cnn2c1N` [Compound 6.35, 1-((1R,3s,5S)-3-(3-(4-(1H-imidazol-2-yl)phenyl)-7-amino-6-(methylsulfonyl)pyrazolo [1,5-a]pyrimidin-5-yl)-8-azabicyclo[3.2.1]octan-8-yl)-2-hydroxyethanone], the pIC50 in experiment [1] (setting [5]) was 7.00 to 9.00; in experiment [2] (setting [5]), 6.00 to 7.00.

On to `Cc1[nH]nc(-c2ccc(-c3cnn4c(N)c(C5CC5)c([C@@H]5C[C@H]6CC[C@@H](C5)N6C(=O)CO)nc34)cn2)c1F` [Compound 4.20, 1-((1R,3s,5S)-3-(7-amino-6-cyclopropyl-3-(6-(4-fluoro-5-methyl-1H-pyrazol-3-yl)pyridin-3-yl)pyrazolo[1,5-a]pyrimidin-5-yl)-8-azabicyclo[3.2.1]octan-8-yl)-2-hydroxyethanone], for which the pIC50 in experiment [1] (setting [3]) and in experiment [2] (setting [3]) was 6.00 to 7.00 each time.

As to `COc1ccc(-c2ccc(-c3cnn4c(N)c(S(C)(=O)=O)c([C@@H]5C[C@H]6CC[C@@H](C5)N6C(=O)c5nnc[nH]5)nc34)cn2)cc1` [Compound 3.33, ((1R,3s,5S)-3-(7-amino-3-(6-(4-methoxyphenyl)pyridin-3-yl)-6-(methylsulfonyl)pyrazolo[1,5-a]pyrimidin-5-yl)-8-azabicyclo[3.2.1]octan-8-yl)(4H-1,2,4-triazol-3-yl)methanone], the pIC50 in experiment [1] (setting [4]) and in experiment [2] (setting [4]) was 7.00 to 9.00 each time.

For the molecule `Nc1c(C2CC2)c([C@@H]2C[C@H]3CC[C@@H](C2)N3C(=O)CO)nc2c(-c3ccc(-c4ncc[nH]4)nc3)cnn12` [Compound 6.1, 1-((1R,3s,5S)-3-(3-(6-(1H-imidazol-2-yl)pyridin-3-yl)-7-amino-6-cyclopropylpyrazolo [1,5-a]pyrimidin-5-yl)-8-azabicyclo[3.2.1]octan-8-yl)-2-hydroxyethanone], the pIC50 in experiment [1] (setting [5]) and in experiment [2] (setting [5]) was 7.00 to 9.00 each time.

Take `CC(=O)c1c([C@@H]2C[C@H]3CC[C@@H](C2)N3C(=O)CO)nc2c(-c3cnc(C(C)(C)O)c(C)c3)cnn2c1N` [Compound 7.23, 1-((1R,3s,5S)-3-(6-acetyl-7-amino-3-(6-(2-hydroxypropan-2-yl)-5-methylpyridin-3-yl)pyrazolo[1,5-a]pyrimidin-5-yl)-8-azabicyclo[3.2.1]octan-8-yl)-2-hydroxyethanone]: the pIC50 in experiment [1] (setting [3]) and in experiment [2] (setting [3]) was 6.00 to 7.00 throughout.

Turning to `CS(=O)(=O)c1c([C@@H]2C[C@H]3CC[C@@H](C2)N3C(=O)c2c[nH]c(=O)[nH]2)nc2c(-c3ccc(-c4ccccc4)nc3)cnn2c1N` [Compound 3.139, 4-((1R,3s,5S)-3-(7-amino-6-(methylsulfonyl)-3-(6-phenylpyridin-3-yl)pyrazolo[1,5-a]pyrimidin-5-yl)-8-azabicyclo[3.2.1]octane-8-carbonyl)-1H-imidazol-2(3H)-one], the results for the pIC50 in experiment [1] (setting [4]) and in experiment [2] (setting [4]) were 7.00 to 9.00 and 6.00 to 7.00, respectively.

Take `CS(=O)(=O)c1c([C@@H]2C[C@H]3CC[C@@H](C2)N3/C(N)=N/C#N)nc2c(-c3ccc(-c4ccccc4)nc3)cnn2c1N` [Compound 8.87, (1R,3s,5S,E)-3-(7-amino-6-(methylsulfonyl)-3-(6-phenylpyridin-3-yl)pyrazolo[1,5-a]pyrimidin-5-yl)-N′-cyano-8-azabicyclo[3.2.1]octane-8-carboximidamide]: the pIC50 in experiment [1] (Homo sapiens, PC-3, PC3 cells) was 7.00 to 9.00; in experiment [2] (Homo sapiens, PC-3, PC3 cells), 6.00 to 7.00.

As for `CS(=O)(=O)c1c([C@@H]2C[C@H]3CC[C@@H](C2)N3)nc2c(-c3ccc(-c4ccccc4)nc3)cnn2c1N` [Compound 3.202, 5-((1R,3s,5S)-8-azabicyclo[3.2.1]octan-3-yl)-6-(methylsulfonyl)-3-(6-phenylpyridin-3-yl)pyrazolo[1,5-a]pyrimidin-7-amine], the pIC50 in experiment [1] (setting [4]) and in experiment [2] (setting [4]) was 5.00 to 6.00 each time.

As to `CC(=O)c1c([C@@H]2C[C@H]3CC[C@@H](C2)N3C(=O)c2cc(N)n[nH]2)nc2c(-c3ccc(-c4ccc(F)cc4F)nc3)cnn2c1N` [Compound 1.1.166, 1-(7-amino-5-((1R,3s,5S)-8-(3-amino-1H-pyrazole-5-carbonyl)-8-azabicyclo[3.2.1]octan-3-yl)-3-(6-(2,4-difluorophenyl)pyridin-3-yl)pyrazolo[1,5-a]pyrimidin-6-yl)ethanone], the pIC50 in experiment [1] (setting [3]) and in experiment [2] (setting [3]) was 7.00 to 9.00 in each case.

Consider `CC(=O)c1c([C@@H]2C[C@H]3CC[C@@H](C2)N3C(=O)c2nnc[nH]2)nc2c(-c3cnn(C)c3)cnn2c1N` [Compound 1.1.151, 1-(5-((1R,3s,5S)-8-(4H-1,2,4-triazole-3-carbonyl)-8-azabicyclo[3.2.1]octan-3-yl)-7-amino-3-(1-methyl-1H-pyrazol-4-yl)pyrazolo[1,5-a]pyrimidin-6-yl)ethanone], for which the pIC50 in experiment [1] (setting [3]) and in experiment [2] (setting [3]) was 6.00 to 7.00 each time.
